Organism: Rattus norvegicus
Assay: DrugMatrix - Regimen: Daily Repeat
Format: toxicity, organism-based, Sprague-Dawley
Parameters: regimen Daily Repeat, gender Male, age 6-8 weeks
Settings: in vivo, po, route oral GAVAGE, vehicle .5 % CMC; for BASOPHIL / EOSINOPHIL / ERYTHROCYTE COUNT / HEMATOCRIT / LEUKOCYTE COUNT / LYMPHOCYTE / MEAN CORPUSCULAR HEMOGLOBIN / MEAN CORPUSCULAR HEMOGLOBIN CONCENTRATION / MEAN CORPUSCULAR VOLUME / MONOCYTE / NEUTROPHIL / PLATELET COUNT: tissue Blood; for ALANINE AMINOTRANSFERASE / ALBUMIN / ALKALINE PHOSPHATASE / ASPARTATE AMINOTRANSFERASE / BLOOD UREA NITROGEN / CHLORIDE / CHOLESTEROL / CREATINE PHOSPHOKINASE / CREATININE / GLUCOSE / PHOSPHORUS / POTASSIUM / SODIUM / TOTAL BILIRUBIN / TOTAL PROTEIN: tissue Plasma
[1] = 0 mg/kg, 72 h, dose level Control, time 3 day
[2] = 0 mg/kg, 120 h, dose level Control, time 5 day
[3] = 3 mg/kg, 72 h, dose level Low, time 3 day
[4] = 3 mg/kg, 120 h, dose level Low, time 5 day

## NCCCC(O)(P(=O)(O)O)P(=O)(O)O [ALENDRONIC ACID]
[1]
  BASOPHIL: 0%
  EOSINOPHIL: 0%
  ERYTHROCYTE COUNT: 6.19 x10E6/uL
  HEMATOCRIT: 36.94%
  LEUKOCYTE COUNT: 11.54 x10E3/uL
  LYMPHOCYTE: 84.8%
  MEAN CORPUSCULAR HEMOGLOBIN: 23.58 pg
  MEAN CORPUSCULAR HEMOGLOBIN CONCENTRATION: 39.44 G/DL
  MEAN CORPUSCULAR VOLUME: 59.76 fL
  MONOCYTE: 1.4%
  NEUTROPHIL: 13.8%
  PLATELET COUNT: 1068.8 x10E3/uL
  ALANINE AMINOTRANSFERASE: 38.17 u/L
  ALBUMIN: 3.88 G/DL
  ALKALINE PHOSPHATASE: 391.33 u/L
  ASPARTATE AMINOTRANSFERASE: 69.83 u/L
  BLOOD UREA NITROGEN: 15 mg/dL
  CHLORIDE: 104.17 MEQ/L
  CHOLESTEROL: 72.17 mg/dL
  CREATINE PHOSPHOKINASE: 174.33 u/L
  CREATININE: 0.58 mg/dL
  GLUCOSE: 192.67 mg/dL
  PHOSPHORUS: 10.52 mg/dL
  POTASSIUM: 6.8 MEQ/L
  SODIUM: 149.67 MEQ/L
  TOTAL BILIRUBIN: 0.78 mg/dL
  TOTAL PROTEIN: 6.28 G/DL
[2]
  BASOPHIL: 0%
  EOSINOPHIL: 0.17%
  ERYTHROCYTE COUNT: 6.72 x10E6/uL
  HEMATOCRIT: 40.02%
  LEUKOCYTE COUNT: 9.5 x10E3/uL
  LYMPHOCYTE: 87.17%
  MEAN CORPUSCULAR HEMOGLOBIN: 23.57 pg
  MEAN CORPUSCULAR HEMOGLOBIN CONCENTRATION: 39.62 G/DL
  MEAN CORPUSCULAR VOLUME: 59.55 fL
  MONOCYTE: 1.67%
  NEUTROPHIL: 11%
  PLATELET COUNT: 1053.67 x10E3/uL
  ALANINE AMINOTRANSFERASE: 26.33 u/L
  ALBUMIN: 4.02 G/DL
  ALKALINE PHOSPHATASE: 316.67 u/L
  ASPARTATE AMINOTRANSFERASE: 61.33 u/L
  BLOOD UREA NITROGEN: 18.67 mg/dL
  CHLORIDE: 108 MEQ/L
  CHOLESTEROL: 65.17 mg/dL
  CREATINE PHOSPHOKINASE: 161.17 u/L
  CREATININE: 0.75 mg/dL
  GLUCOSE: 177.33 mg/dL
  PHOSPHORUS: 9.72 mg/dL
  POTASSIUM: 6.18 MEQ/L
  SODIUM: 150.5 MEQ/L
  TOTAL BILIRUBIN: 0.68 mg/dL
  TOTAL PROTEIN: 6.55 G/DL
[3]
  BASOPHIL: 0%
  EOSINOPHIL: 0%
  ERYTHROCYTE COUNT: 5.67 x10E6/uL
  HEMATOCRIT: 34.63%
  LEUKOCYTE COUNT: 9.73 x10E3/uL
  LYMPHOCYTE: 86.33%
  MEAN CORPUSCULAR HEMOGLOBIN: 24.23 pg
  MEAN CORPUSCULAR HEMOGLOBIN CONCENTRATION: 39.67 G/DL
  MEAN CORPUSCULAR VOLUME: 61.13 fL
  MONOCYTE: 1.33%
  NEUTROPHIL: 12.33%
  PLATELET COUNT: 1035.67 x10E3/uL
  ALANINE AMINOTRANSFERASE: 34 u/L
  ALBUMIN: 3.77 G/DL
  ALKALINE PHOSPHATASE: 322.33 u/L
  ASPARTATE AMINOTRANSFERASE: 69 u/L
  BLOOD UREA NITROGEN: 16 mg/dL
  CHLORIDE: 105.67 MEQ/L
  CHOLESTEROL: 63 mg/dL
  CREATINE PHOSPHOKINASE: 139.33 u/L
  CREATININE: 0.6 mg/dL
  GLUCOSE: 171 mg/dL
  PHOSPHORUS: 10.3 mg/dL
  POTASSIUM: 6.6 MEQ/L
  SODIUM: 150 MEQ/L
  TOTAL BILIRUBIN: 0.57 mg/dL
  TOTAL PROTEIN: 5.97 G/DL
[4]
  BASOPHIL: 0%
  EOSINOPHIL: 0.67%
  ERYTHROCYTE COUNT: 6.7 x10E6/uL
  HEMATOCRIT: 40.67%
  LEUKOCYTE COUNT: 10.57 x10E3/uL
  LYMPHOCYTE: 75%
  MEAN CORPUSCULAR HEMOGLOBIN: 24.1 pg
  MEAN CORPUSCULAR HEMOGLOBIN CONCENTRATION: 39.7 G/DL
  MEAN CORPUSCULAR VOLUME: 60.77 fL
  MONOCYTE: 3%
  NEUTROPHIL: 21.33%
  PLATELET COUNT: 904.33 x10E3/uL
  ALANINE AMINOTRANSFERASE: 30.67 u/L
  ALBUMIN: 4.1 G/DL
  ALKALINE PHOSPHATASE: 352.33 u/L
  ASPARTATE AMINOTRANSFERASE: 64 u/L
  BLOOD UREA NITROGEN: 14.67 mg/dL
  CHLORIDE: 106 MEQ/L
  CHOLESTEROL: 64.33 mg/dL
  CREATINE PHOSPHOKINASE: 130.33 u/L
  CREATININE: 0.77 mg/dL
  GLUCOSE: 191 mg/dL
  PHOSPHORUS: 10.83 mg/dL
  POTASSIUM: 6.4 MEQ/L
  SODIUM: 150.67 MEQ/L
  TOTAL BILIRUBIN: 0.83 mg/dL
  TOTAL PROTEIN: 6.73 G/DL

— ChEMBL document CHEMBL3885881, “DrugMatrix”
